According to patent publication US20250382308A1, “COMPOUNDS ACTIVE TOWARDS BROMODOMAINS” (NUEVOLUTION A/S, priority 2022, published 2025):

Tests used:
[1] = biological target: human recombinant phosphodiesterase (PDE3A) (Homo sapiens (Human), UniProt Q14432); assay: Radiometric PDE3A assay; type: biochemical; conditions: [3H]-cAMP hydrolysis, 20 minutes at 30° C.
Method: Partially purified human recombinant phosphodiesterase (PDE3A) was obtained by cloning cDNA and expressing in S. frugiperda insect cells using a baculovirus expression system. Cells were harvested from culture by centrifuging at 400×g for 5 minutes. Cell pellet was resuspended in 20 ml of RIPA Buffer (150 mM NaCl, 10 mM Tris, 0.1% NP-40, pH8.3), 4 ml/200 ml of culture, plus protease inhibitors (100 μl/10 ml) and incubated on ice for 10-20 minutes then spun at 3500×g for 10 minutes at 4° C. Supernatant was kept and the pellet thrown away. Tritium-labeled cyclic AMP was hydrolysed to 5′-AMP by PDE3A. The 5′-AMP was then further hydrolysed to adenosine by nucleotidase in snake venom. An anion-exchange resin binds all charged nucleotides and leaves [3H]adenosine as the only labeled compound to be counted by liquid scintillation. The radiometric assay method is a modification of the two-step method of Thompson and Appleman [Biochemistry 10; 311-316; 1971], adapted for a 96 well plate format. 50 μl of diluted PDE3A was incubated with 50 μl of [3H]-CAMP (specific activity 25 Ci/mmol) and 11 μl of 50% DMSO (or compound dilution) for 20 minutes at 30° C. The enzyme was diluted in 20 mM Tris HCl pH7.4 (×2.2 final concentration) and [3H]-cAMP were diluted in 10 mM MgCl2, 40 mM Tris HCl pH 7.4 (×2.2 final concentration). Reactions were carried out in Greiner 96 deep well 1 ml master-block. The plates were centrifuged for 9 seconds before the 20 minutes incubation. The reaction was terminated by denaturing the PDE enzyme (at 70° C. for 2 minutes, plates were left to cool on ice for 10 minutes) after which 25 μl snake venom nucleotidase (225 ug/ml final concentration) was added and incubated for 10 minutes (at 30° C.), plates were centrifuged for 9 seconds before incubation. After incubation 200 μl Dowex resin (1×8, 200-400 mesh) was added and the plate was shaken for 20 minutes then centrifuged for 3 minutes at 1000×g. 50 μl of supernatant was removed and added to 200 μl of MicroScint-20 in white plates (Greiner 96-well Optiplate) and shaken for 30 minutes before reading on Perkin Elmer TopCount Scintillation Counter. GraphPad Prism™ was used to calculate the IC50 values using a sigmoidal dose response (variable slope). The analysis measures 4 parameters including the best fit values for the bottom and top fit of the curve, the hill slope value and the IC50 value.

[2] = biological target: first bromodomain of BRD4 (Homo sapiens (Human), UniProt O60885); assay: Bromoscan binding assay BRD4 (1); conditions: for Kd: Bromoscan, geometric mean where multiple measurements have been made; for Selectivity BRD4(2)/BRD4(1): ratio BRD4(2) Kd / BRD4(1) Kd
Method: (§1) Compounds were assayed for binding affinity using bromoscan assays and a phosphodiesterase three assay.
(§2) Bromoscan assays were run by DiscoveRx Corporation. The relevant assay names are BRD4 (1) for the first bromodomain of BRD4 and BRD4 (2) for the second bromodomain of BRD4. Further Bromoscan assays covering other bromodomains may be employed to establish the selectivity profile of a compound of interest. To run the Bromoscan assay, a T7 phage strain displaying the relevant bromodomain was grown in parallel in 24-well blocks in an E. coli host derived from the BL21 strain. E. coli were grown to log-phase and infected with T7 phage from a frozen stock (multiplicity of infection=0.4) and incubated with shaking at 32° C. until lysis (90-150 minutes). The lysates were centrifuged (5,000×g) and filtered (0.2 μm) to remove cell debris. […] The liganded beads were blocked with excess biotin and washed with blocking buffer (SeaBlock (Pierce), 1% BSA (bovine serum albumin), 0.05% Tween 20, 1 mM DTT (dithiothreitol)) to remove unbound ligand and to reduce non-specific phage binding. […] Test compounds were prepared as 1000× stocks in 100% DMSO and subsequently diluted 1:10 in monoethylene glycol (MEG) to create stocks at 100× the screening concentration (resulting stock solution is 10% DMSO/90% MEG). The compounds were then diluted directly into the assays such that the final concentration of DMSO and MEG were 0.1% and 0.9%, respectively. All reactions were performed in polystyrene 96-well plates in a final volume of 0.135 ml. […] The bromodomain concentration in the eluates was measured by qPCR (quantitative real-time polymerase chain reaction). Binding constants (Kds) were calculated with a standard dose-response curve using the Hill equation: Response=Blackground+((Signal-Background)/(1+Kd^Hill Slope/Dose^Hill Slope)). The Hill Slope was set to −1. Curves were fitted using a non-linear least square fit with the Levenberg-Marquardt algorithm.

[3] = biological target: second bromodomain of BRD4 (Homo sapiens (Human), UniProt O60885); assay: Bromoscan binding assay BRD4 (2); conditions: geometric mean where multiple measurements have been made
Method: as §1, §2

human recombinant phosphodiesterase (PDE3A), sequence (Q14432 whole entry): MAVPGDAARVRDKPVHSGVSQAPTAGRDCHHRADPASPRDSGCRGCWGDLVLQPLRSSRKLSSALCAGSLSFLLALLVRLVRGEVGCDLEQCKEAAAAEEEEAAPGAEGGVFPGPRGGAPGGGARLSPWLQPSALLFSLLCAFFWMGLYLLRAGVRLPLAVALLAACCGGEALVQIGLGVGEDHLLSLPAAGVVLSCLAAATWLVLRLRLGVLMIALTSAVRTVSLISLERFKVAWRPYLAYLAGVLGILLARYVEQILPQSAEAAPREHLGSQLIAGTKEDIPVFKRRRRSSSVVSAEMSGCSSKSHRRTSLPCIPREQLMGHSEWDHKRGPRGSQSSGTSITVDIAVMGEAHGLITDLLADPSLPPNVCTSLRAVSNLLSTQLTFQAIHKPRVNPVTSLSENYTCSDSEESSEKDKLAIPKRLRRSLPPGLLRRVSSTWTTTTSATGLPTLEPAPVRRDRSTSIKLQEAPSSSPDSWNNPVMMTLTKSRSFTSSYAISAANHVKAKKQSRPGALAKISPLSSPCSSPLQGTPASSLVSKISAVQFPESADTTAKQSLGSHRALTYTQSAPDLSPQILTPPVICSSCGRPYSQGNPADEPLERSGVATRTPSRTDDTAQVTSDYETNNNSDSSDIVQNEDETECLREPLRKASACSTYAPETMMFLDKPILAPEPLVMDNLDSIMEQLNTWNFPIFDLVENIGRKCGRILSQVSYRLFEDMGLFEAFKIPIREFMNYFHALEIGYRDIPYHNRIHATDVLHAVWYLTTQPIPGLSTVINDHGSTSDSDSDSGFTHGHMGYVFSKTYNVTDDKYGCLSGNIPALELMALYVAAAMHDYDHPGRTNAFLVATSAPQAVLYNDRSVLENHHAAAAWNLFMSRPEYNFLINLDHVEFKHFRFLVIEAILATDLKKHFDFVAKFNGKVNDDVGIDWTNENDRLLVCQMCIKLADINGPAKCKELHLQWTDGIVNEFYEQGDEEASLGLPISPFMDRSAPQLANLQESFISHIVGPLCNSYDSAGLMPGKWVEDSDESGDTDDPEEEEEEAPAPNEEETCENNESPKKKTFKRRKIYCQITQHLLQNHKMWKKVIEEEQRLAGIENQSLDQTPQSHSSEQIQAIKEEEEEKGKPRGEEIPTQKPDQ

Compound | IC50 [1] | Kd [2] | Selectivity BRD4(2)/BRD4(1) [2] | Kd [3]
COc1cc(NC(=O)c2cc3c(nc2N2CCOCC2)CCC3)cc2c(C)cc(=O)[nH]c12 [Example 29, N-(8-methoxy-4-methyl-2-oxo-1H-quinolin-6-yl)-2-morpholino-6,7-dihydro-5H-cyclopenta[b]pyridine-3-carboxamide] | > 10 µM | 0.018 µM | 106 | 1.9 µM
COc1cc(NC(=O)c2cc3c(nc2N(C)CC2CC2)COC3)cc2c(C)cc(=O)[nH]c12 [Example 26, 2-[cyclopropylmethyl(methyl)amino]-N-(8-methoxy-4-methyl-2-oxo-1H-quinolin-6-yl)-5,7-dihydrofuro[3,4-b]pyridine-3-carboxamide] | > 10 µM | 0.051 µM | 61 | 3.1 µM
CCOc1cc(NC(=O)c2cc3c(nc2N2CCOCC2)COC3)cc2c(C)cc(=O)[nH]c12 [Example 12, N-(8-ethoxy-4-methyl-2-oxo-1H-quinolin-6-yl)-2-morpholino-5,7-dihydrofuro[3,4-b]pyridine-3-carboxamide] | > 10 µM | 0.087 µM | 93 | 8.1 µM
Cc1cc(=O)[nH]c2c(C)cc(NC(=O)c3cc4c(nc3N3CCOCC3)COC4)cc12 [Example 7, N-(4,8-dimethyl-2-oxo-1H-quinolin-6-yl)-2-morpholino-5,7-dihydrofuro[3,4-b]pyridine-3-carboxamide] | > 10 µM | 0.04 µM | 178 | 7.1 µM
Cc1cc2[nH]c(=O)cc(C)c2cc1NC(=O)c1cc2c(nc1N1CCOCC1)COC2 [Example 11, N-(4,7-dimethyl-2-oxo-1H-quinolin-6-yl)-2-morpholino-5,7-dihydrofuro[3,4-b]pyridine-3-carboxamide] | 7 µM | 0.09 µM | >111 | > 10 µM
CNCCOc1cc(NC(=O)c2cc3c(nc2N2CCOCC2)COC3)cc2c(C)cc(=O)[nH]c12 [Example 38, N-[4-methyl-8-[2-(methylamino)ethoxy]-2-oxo-1H-quinolin-6-yl]-2-morpholino-5,7-dihydrofuro[3,4-b]pyridine-3-carboxamide] | > 10 µM | 0.02 µM | >250 | > 5 µM
COc1cc(NC(=O)c2cc3c(nc2N2C[C@H]4C[C@@H]2CO4)COC3)cc2c(C)cc(=O)[nH]c12 [Example 24, N-(8-methoxy-4-methyl-2-oxo-1H-quinolin-6-yl)-2-[(1R,4R)-2-oxa-5-azabicyclo[2.2.1]heptan-5-yl]-5,7-dihydrofuro[3,4-b]pyridine-3-carboxamide] | > 10 µM | – | – | –
COc1cc(NC(=O)c2cc3c(nc2N2C[C@H](F)[C@@H](F)C2)COC3)cc2c(C)cc(=O)[nH]c12 (racemic) [Example 43, N-(8-methoxy-4-methyl-2-oxo-1H-quinolin-6-yl)-2-[rac-(3S,4S)-3,4-difluoropyrrolidin-1-yl]-5,7-dihydrofuro[3,4-b]pyridine-3-carboxamide] | > 10 µM | 0.018 µM | 22 | 0.4 µM
Cc1cc(=O)[nH]c2c(OCCO)cc(NC(=O)c3cc4c(nc3N3CCOCC3)COC4)cc12 [Example 36, N-[8-(2-hydroxyethoxy)-4-methyl-2-oxo-1H-quinolin-6-yl]-2-morpholino-5,7-dihydrofuro[3,4-b]pyridine-3-carboxamide] | > 10 µM | 0.027 µM | 15 | 0.4 µM
COc1cc(NC(=O)c2cc3c(nc2N2CC4CCOC4C2)COC3)cc2c(C)cc(=O)[nH]c12 (stereo not drawn) [Example 19, 2-(2,3,3a,4,6,6a-hexahydrofuro[2,3-c]pyrrol-5-yl)-N-(8-methoxy-4-methyl-2-oxo-1H-quinolin-6-yl)-5,7-dihydrofuro[3,4-b]pyridine-3-carboxamide] | – | 0.18 µM | 31 | 5.6 µM
